# Measurements published in patent US7531500B2, “Preventing airway mucus production by administration of EGF-R antagonists” (The Regents of the University of California, priority 1998, dated 2009).
# How the values were obtained:
# pathogen-free rats [1] = assay: Agarose plug-induced goblet cell metaplasia in pathogen-free rats; format: in vivo, rat
# Description: Protocol of experiments. We studied pathogen-free rats, because they normally have few goblet cells in airways. The animals were anesthetized with methohexital sodium (Brevital, 25 mg/kg, i.p.). The trachea was exposed aseptically with a midline cervical incision, and agarose plugs were instilled into a bronchus via a 20 gauge Angiocath (Becton Dikinson, Sandy, Utah) connected to polyethylene tubing (PE 90, internal diameter 0.86 mm and outer diameter 1.27 mm, Clay Adams, Parsippany, N.Y.) threaded into the incised trachea. The polyethylene tube was bent at a 30° angle to allow selective instillation into the right bronchus. After instillation, the incision was closed with a suture.
# To evaluate the role of EGF-R on agarose plug-induced goblet cell metaplasia, animals were treated with BIBX1522 (80 mg/kg, i.p.) 1 h before instillation of the agarose plugs and repeated daily (40 mg/kg, i.p., bid). Animals were euthanized 24, 48 or 72 h after instillation of the agarose plugs.
# The first treatment (100 μl in 0.2 ml saline, i.p.) was given 1 h before the instillation of agarose plugs, and i.p. injections were repeated daily.
# To study the effect of neutrophils on agarose plug-induced goblet cell metaplasia, rats were pretreated with cyclophosphamide (an inhibitor of bone marrow leukocytes) or with a combination of cyclophosphamide plus NPC 15669. Cyclophosphnamide (100 mg/kg, i.p.) was given 5 d before instillation of agarose plugs, and a second injection of cyclophosphamide (50 mg/kg, i.p.) was given 1 d before instillation of plugs. In studies with NPC 15669, the drug (10 mg/kg, i.p.) was injected 1 h before instillation of agarose plugs, and then daily for 3 d thereafter.
# Tissue preparation. At various times after agarose plug instillation, rats were anesthetized with sodium pentobarbital (65 mg/kg, i.p.), the systemic circulation was perfused with 1% paraformaldehyde in diethyl pyrocarbonate-treated PBS at a pressure of 120 mmHg. The right lung was removed, and the right caudal lobe was used for histology. For frozen sections, tissues were removed and placed in 4% paraformaldehyde for 1 h and then replaced in 30% sucrose for cryoprotection overnight. The tissues were embedded in O.C.T. compound (Sakura Finetek U.S.A., Inc., Torrance, Calif.). For methacrylate sections, the tissues were placed in 4% paraformaidehyde for 24 h and then dehydrated with graded concentrations of ethanol and embedded in methacrylate JB-4 (Polysciences, Inc., Warrington, Pa.). Tissue sections (4 μm thick) were stained with Alcian blue/PAS and counterstained with hematoxylin.
# Morphoometric analysis of bronchial epithelium. The percentage of Alcian blue/PAS-stained area of mucous glycoconjugates in the epithelium was determined using a semi-automatic image analysis system according to previously published methods. The area of epithelium and Alcian blue/PAS-stained mucous conjugates within the epithelium was manually circumscribed and analyzed using the NIH Image program (developed at the U.S. National Institutes of health and available from the internet by ananymous FTP or from a floppy disk from the National Technical Information Service, Springfield, Va.; part number PB95-500195GEI). The data are expressed as the percentage of the total epithelial area occupied by Alcian blue/PAS stain. […] The percentage of denuded epithelium was determined by calculating the ratio of the length of denuded epithelium to the total epithelial length.
# Identification of cell types in methacrylate sections and cell analysis. The total number of epithelial cells was determined by counting epithelial cell nuclei over 2 mm of the basal lamina with an oil immersion objective lens (×1000 magnification). The linear length of the basal lamina under each analyzed region of epithelium was determined by tracing the contour of the digitalized image of the basal lamina. The epithelia; cells were identified as described previously.
# pathogen-free rats [2] = assay: IL-13-induced goblet cell metaplasia in rat airways; format: in vivo; conditions: pretreatment
# Description: Animals were anesthetized with pentobarbital [Nembutal sodium, 50 mg/kg, intraperitoneally (ip), Abbott Laboratories, North Chicago, Ill.] and allowed to breathe spontaneously. Vehicle (phosphate buffer solution, PBS) or IL-13 was instilled intratracheally via a 20-gauge Angiocath catheter (Beckton Dickinson, Sandy, Utah) through the mouth, while the laryngeal area was visualized using a high-intensity illuminator (FiberLite; Dolan Jenner Industries, Inc., Lawrence, Mass.). The […] tissues were examined 48 hours after instillation of IL-13. Various concentrations of IL-13 (recombinant murine IL-13; 5, 50, 100, and 500 ng/rat, R&D systems, Minneapolis, Minn.) were instilled into the trachea in […]. Sterile PBS (200 μl) was instilled into the trachea as controls. For examination of the relationship between IL-13-induced GC metaplasia and activation of EGFR, animals were pretreated 1 d before instillation of IL-13 and daily thereafter with a selective EGFR tyrosine kinase inhibitor (BIBX 1522; 1-30 mg/kg/day, ip; Boehringer Ingelheim, Ingelheim, Germany). Animals were euthanized 48 hours after instillation of IL-13. In preliminary studies, we noted that IL-13 causes leukocyte recruitment into the airways. We hypothesized that leukocyte recruitment results from IL-13-induced chemoattractant release from epithelium, and that this recruitment is involved in the IL-13-induced EGFR cascade leading to GC metaplasia. Groups of animals were euthanized 4, 8, 16, 24, and 48 hours after instillation of IL-13 (500 ng), and leukocytes were counted in airway tissue. […] Sigma chemical Co., St Louis, Mo.] or with a blocking antibody to interleukin-8 (IL-BAb; rabbit anti-human IL-8 antibody; Biosource, Camarillo, Calif.). […] In another series of studies, we instilled IL-8 Ab (10 μg/rat) intratracheally, along with IL-13; we repeated the instillation of anti-human IL-8 blocking antibody at 12 hour intervals until the animals were euthanized. Animals were euthanized with a lethal dose of pentobarbital (Nembutal sodium, 200 mg/kg, ip, Abbott Laboratories, North Chicago, Ill.), and the systemic circulation was perfused with 1% paraformaldehyde in Diethylpyrocarbonate (DEPC, Sigma chemical Co., St Louis, Mo.)-treated PBS via the left ventricle. For frozen sections, […] tissues were removed, placed in 4% paraformaldehyde overnight, and then placed in 30% sucrose for cryoprotection. The tissues were embedded in optimal cutting temperature (OCT, […]., Inc., Torrance, Calif.) compound. For plastic or paraffin sections, tissues were placed in 4% paraformaldehyde overnight, dehydrated with ethanol, and embedded in JB-4 plus monomer solution A (Polysclences, Inc., Warrington, Pa.) or in paraffin. The embedded tissues were cut as cross sections 4 μm thick and placed on glass slides. In all studies, the carina was examined to obtain consistent sampling. We measured AB/PAS-positive areas and total epithelial area, and we expressed the results as the percentage of AB/PAS area to total epithelial area. The analysis was performed with the public domain NIH IMAGE program (developed at the U.S. National Institutes of Health and available by anonymous FTP from zippy.nimh.gov. or floppy disk from the National Technical Information Service, Springfield, Va., part number PB95-500195GEI). […] For immunohistochemical localization of […], we used mouse anti-human IL-8 antibody (1:20; Biosource, Camarillo, Calif.). The sections were then incubated with biotinylated horse anti-mouse IgG (Vector Laboratories, Burlingame, Calif.) at 1:200 dilution for 1 hour at room temperature. Bound antibody was visualized according to standard protocols for avidin-biotin-peroxidase complex method. The measurement of MUC5AC protein also utilized the same method used for quantitative measurement of GC metaplasia in the epithelium. Animals were euthanized 4, 8, 16, 24, and 48 hours after instillation of IL-13 (500 ng), and leukocytes were counted in airway tissue. […]
compound,measurement,setting,value
O=P1(N(CCCl)CCCl)NCCCO1 (stereo not shown) [cyclophosphamide],neutrophil count in venous blood,"pathogen-free rats [1]; after cyclophosphamide 100 mg/kg then 50 mg/kg i.p., n=5",1.8±0.5%
same,agarose plug-induced EGF-R protein expression,"pathogen-free rats [1]; rat, in vivo",inhibited
same,agarose plug-induced goblet cell metaplasia (Alcian blue/PAS-positively stained cells),"pathogen-free rats [1]; rat, in vivo",inhibited
same,macrophage recruitment after agarose plugs,"pathogen-free rats [1]; rat, in vivo",did not inhibit
same,plug-induced neutrophil recruitment in BAL,"pathogen-free rats [1]; rat, in vivo",inhibited
same,number of neutrophils in the airway lumen,"pathogen-free rats [1]; treated rats with plugs, 24 h",2.6±0.3 /mm of basal lamina
same,number of neutrophils in the epithelium,"pathogen-free rats [1]; treated rats with plugs, 24 h",0.8±0.2 /mm
same,IL-13-induced TNFα expression,pathogen-free rats [2],prevented
same,IL-13-induced leukocyte recruitment into airways,pathogen-free rats [2],inhibited
same,IL-13-induced mucin production,pathogen-free rats [2],prevented
